SMILES strings stand for the structures.

For orientation: EC50 means the midpoint of the concentration-response curve. One may read the CC50 as the concentration giving 50% cytotoxicity. High values mean better tolerance by the cells, low ones harm at low concentration.

For data set [1], the system named is HBV replication in HepAD38 cells. Briefly: Anti-HBV replication assay in HepAD38 cells (QPCR of extracellular HBV DNA). The data set is classed as cell-based, HBV (genotype D, serotype ayw). The conditions noted are these: Hepatitis B virus, 168 h, 7 days incubation, extracellular HBV DNA by QPCR, read-out: Anti-HBV EC50. In a few lines:
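Tet-off HepAD38, 7-day compound exposure ([…], 1 log10 steps, DMSO vehicle), 37 °C. Extracellular HBV DNA by QPCR, copies/mL via standard curve, % inhibition vs vehicle, EC50 by 4-parameter regression. Entecavir as positive control.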

A short description of data set [2]: In vitro cytotoxicity assay (MTT cell viability) in HepG2 cells. In kind it is cell-based, human. The conditions noted are these: human. In a few lines: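 Read-out: MTT formazan absorbance at 492 nm, expressed as % of vehicle signal; CC50 by 4-parameter non-linear regression. Parental HepG2, 20,000 cells/well, treated 7 days with compound from 30 μM down to 1.0 nM.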

With `Cc1cc(NC(=O)c2c(C)c(C(=O)C(=O)N[C@H]3CCC[C@@H]3O)n(C)c2C)cnc1F` [Example 131, N-(6-fluoro-5-methylpyridin-3-yl)-5-(2-(((1S,2S)-2-hydroxycyclopentyl)amino)-2-oxoacetyl)-1,2,4-trimethyl-1H-pyrrole-3-carboxamide], in data set [1], the EC50 is 50 to 499 nM. This compound gave a 50% cytotoxic concentration (CC50) at 7 days in data set [2] of more than 30000 nM.

As for `Cc1cc(NC(=O)c2c(C)c(C(=O)C(=O)N[C@H](C(N)=O)[C@@H](C)O)n(C)c2C)ccc1F` [Example 42, 5-(2-(((2S,3R)-1-amino-3-hydroxy-1-oxobutan-2-yl)amino)-2-oxoacetyl)-N-(4-fluoro-3-methylphenyl)-1,2,4-trimethyl-1H-pyrrole-3-carboxamide], the EC50 in data set [1] was less than 50 nM. Also, the CC50 at 7 days in data set [2] is more than 30000 nM.

In the case of `Cc1cc(NC(=O)c2c(C)c(C(=O)C(=O)NC3(CO)CCC3)n(C)c2C)ccc1F` [Example 12, N-(4-fluoro-3-methylphenyl)-5-(2-((1-(hydroxymethyl)cyclobutyl)amino)-2-oxoacetyl)-1,2,4-trimethyl-1H-pyrrole-3-carboxamide], in data set [1], the EC50 is less than 50 nM. In data set [2], this compound displayed a CC50 at 7 days of more than 30000 nM.

With `Cc1cc(NC(=O)c2c(C)c(C(=O)C(=O)N[C@@H](C(N)=O)C(C)C)n(C)c2C)ccc1F` [Example 105, (R)-5-(2-((1-amino-3-methyl-1-oxobutan-2-yl)amino)-2-oxoacetyl)-N-(4-fluoro-3-methylphenyl)-1,2,4-trimethyl-1H-pyrrole-3-carboxamide], the EC50 in data set [1] is less than 50 nM. The CC50 at 7 days in data set [2] fell in the range of 5000 to 30000 nM.

As for `CCOC(=O)[C@H](CO)NC(=O)C(=O)c1c(C)c(C(=O)Nc2ccc(F)c(C)c2)c(C)n1C` [Example 25, ethyl (2-(4-((4-fluoro-3-methylphenyl)carbamoyl)-1,3,5-trimethyl-1H-pyrrol-2-yl)-2-oxoacetyl)-L-serinate], the EC50 in data set [1] lay in the range of 50 to 499 nM. The same compound registered a CC50 at 7 days in data set [2] of more than 30000 nM.

On to `O=C(N[C@H]1CCC[C@H]1O)C(=O)c1c(Cl)c(C(=O)Nc2ccc(F)c(Cl)c2)c2n1CCC2` [Example 564, 6-chloro-N-(3-chloro-4-fluorophenyl)-5--(2-(((1S,2R)-2-hydroxycyclopentyl)amino)-2-oxoacetyl)-2,3-dihydro-1H-pyrrolizine-7-carboxamide], for which the EC50 in data set [1] is less than 50 nM. In addition, the 50% cytotoxic concentration (CC50) at 7 days in data set [2] is 5000 to 30000 nM.

For the compound `Cc1cc(NC(=O)c2c(C)c(C(=O)C(=O)N[C@H]3C[C@H](O)C34CCOCC4)n(C)c2C)ccc1F` [Example 620, N-(4-fluoro-3-methylphenyl)-5-(2-(((1S,3S)-3-hydroxy-7-oxaspiro[3.5]nonan-1-yl)amino)-2-oxoacetyl)-1,2,4-trimethyl-1H-pyrrole-3-carboxamide], the EC50 in data set [1] was less than 50 nM. The same compound yielded a 50% cytotoxic concentration (CC50) at 7 days in data set [2] of more than 30000 nM.

With `Cc1cc(NC(=O)c2cc(C(=O)C(=O)N[C@@H](CO)[C@H](C)O)n3c2CCCC3)ccc1F` [Example 417, 3-(2-(((2S,3S)-1,3-dihydroxybutan-2-yl)amino)-2-oxoacetyl)-N-(4-fluoro-3-methylphenyl)-5,6,7,8-tetrahydroindolizine-1-carboxamide], the EC50 in data set [1] lay within 50 to 499 nM. In addition, the CC50 at 7 days in data set [2] was more than 30000 nM.

With `O=C(NC1(CO)CC(F)(F)C1)C(=O)c1c(Cl)c(C(=O)Nc2ccc(F)c(F)c2)c2n1CCCC2` [Example 520, 2-chloro-3-(2-((3,3-difluoro-1-(hydroxymethyl)cyclobutyl)amino)-2-oxoacetyl)-N-(3,4-difluorophenyl)-5,6,7,8-tetrahydroindolizine-1-carboxamide], the EC50 in data set [1] is less than 50 nM. In addition, the CC50 at 7 days in data set [2] was more than 30000 nM.

Regarding `Cc1c(C(=O)Nc2ccc(F)c(F)c2)c(Cl)c(C(=O)C(=O)NC2(C)CC(F)(F)C2)n1C` [Example 375, 4-chloro-5-(2-((3,3-difluoro-1-methylcyclobutyl)amino)-2-oxoacetyl)-N-(3,4-difluorophenyl)-1,2-dimethyl-1H-pyrrole-3-carboxamide], the EC50 in data set [1] was less than 50 nM. The same compound displayed a CC50 at 7 days in data set [2] of more than 30000 nM.

Take `Cc1cc(NC(=O)c2c(C)c(C(=O)C(=O)NC34CC5CC(CC(C5)C3)C4)n(C)c2C)ccc1F` [Example 14, 5-(2-(((3s,5s,7s)-adamantan-1-yl)amino)-2-oxoacetyl)-N-(4-fluoro-3-methylphenyl)-1,2,4-trimethyl-1H-pyrrole-3-carboxamide]: in data set [1], the EC50 was less than 50 nM. This compound also showed a CC50 at 7 days in data set [2] of 5000 to 30000 nM.

For `Cc1cc(NC(=O)c2c(C)c(C(=O)C(=O)NC3COCCOC3)n(C)c2C)ccc1F` [Example 714, 5-(2-((1,4-dioxepan-6-yl)amino)-2-oxoacetyl)-N-(4-fluoro-3-methylphenyl)-1,2,4-trimethyl-1H-pyrrole-3-carboxamide], the EC50 in data set [1] is less than 50 nM. Also, in data set [2], the CC50 at 7 days is more than 30000 nM.

For `COC(=O)[C@@H](NC(=O)C(=O)c1c(C)c(C(=O)Nc2ccc(F)c(C)c2)c(C)n1C)[C@@H](C)O` [Example 27, methyl (2-(4-((4-fluoro-3-methylphenyl)carbamoyl)-1,3,5-trimethyl-1H-pyrrol-2-yl)-2-oxoacetyl)-L-threoninate], in data set [1], the EC50 is more than 1000 nM. In data set [2], this compound gave a CC50 at 7 days of more than 30000 nM.

`Cc1cc(NC(=O)c2c(C)c(C(=O)C(=O)NC3CCc4nc(N)sc4C3)n(C)c2C)ccc1F` (stereo not drawn) [Example 20, 5-(2-((2-amino-4,5,6,7-tetrahydrobenzo[d]thiazol-6-yl)amino)-2-oxoacetyl)-N-(4-fluoro-3-methylphenyl)-1,2,4-trimethyl-1H-pyrrole-3-carboxamide]: in data set [1], the EC50 was less than 50 nM. This compound also displayed a CC50 at 7 days in data set [2] of 500 to 4990 nM.

For the compound `Cc1cc(NC(=O)c2c(C)c(C(=O)C(=O)NCCN)n(C)c2C)ccc1F` [Example 257, 5-(2-((2-aminoethyl)amino)-2-oxoacetyl)-N-(4-fluoro-3-methylphenyl)-1,2,4-trimethyl-1H-pyrrole-3-carboxamide], in data set [1], the EC50 was 50 to 499 nM. This compound had a CC50 at 7 days in data set [2] of 5000 to 30000 nM.

With `Cc1cc(NC(=O)c2c(C)c(C(=O)C(=O)N[C@@H]3CCCC[C@H]3O)n(C)c2C)cnc1F` [Example 162, N-(6-fluoro-5-methylpyridin-3-yl)-5-(2-(((1R,2R)-2-hydroxycyclohexyl)amino)-2-oxoacetyl)-1,2,4-trimethyl-1H-pyrrole-3-carboxamide], the EC50 in data set [1] was in the range of 50 to 499 nM. Also, in data set [2], the CC50 at 7 days was more than 30000 nM.

Take `Cc1cc(NC(=O)c2c(C)c(C(=O)C(=O)NC3(C)CCN(C(=O)c4cn[nH]c4)CC3)n(C)c2C)ccc1F` [Example 709, N-(4-fluoro-3-methylphenyl)-1,2,4-trimethyl-5-(2-((4-methyl-1-(1H-pyrazole-4-carbonyl)piperidin-4-yl)amino)-2-oxoacetyl)-1H-pyrrole-3-carboxamide]: the EC50 in data set [1] was less than 50 nM. For the same compound, the CC50 at 7 days in data set [2] was more than 30000 nM.

Regarding `Cc1c(C(=O)Nc2ccc(F)c(Cl)c2)c(C)n(C)c1C(=O)C(=O)NC12CCC(O)(CC1)CC2` [Example 357, N-(3-chloro-4-fluorophenyl)-5-(2-((4-hydroxybicyclo[2.2.2]octan-1-yl)amino)-2-oxoacetyl)-1,2,4-trimethyl-1H-pyrrole-3-carboxamide], in data set [1], the EC50 was less than 50 nM. The compound also yielded a CC50 at 7 days in data set [2] of more than 30000 nM.

Turning to `Cc1cc(NC(=O)c2c(C)c(C(=O)C(=O)Nc3ccc(B(O)O)cc3)n(C)c2C)ccc1F` [Example 255, (4-(2-(4-((4-fluoro-3-methylphenyl)carbamoyl)-1,3,5-trimethyl-1H-pyrrol-2-yl)-2-oxoacetamido)phenyl)boronic acid], the EC50 in data set [1] is less than 50 nM. The compound also had a CC50 at 7 days in data set [2] of 5000 to 30000 nM.

In the case of `Cc1cc(NC(=O)c2c(C)c(C(=O)C(=O)N[C@H](C)C(F)(F)F)n3c2CCCC3)cnc1F` [Example 469, (R)-N-(6-fluoro-5-methylpyridin-3-yl)-2-methyl-3-(2-oxo-2-((1,1,1-trifluoropropan-2-yl)amino)acetyl)-5,6,7,8-tetrahydroindolizine-1-carboxamide], the EC50 in data set [1] is 500 to 1000 nM. In data set [2], this compound gave a CC50 at 7 days of 5000 to 30000 nM.

Consider `Cc1cc(NC(=O)c2cc(C(=O)C(=O)NC(C)(C)C)n3c2CCC3)ccc1F` [Example 536, 5-(2-(tert-butylamino)-2-oxoacetyl)-N-(4-fluoro-3-methylphenyl)-2,3-dihydro-1H-pyrrolizine-7-carboxamide], for which, in data set [1], the EC50 is less than 50 nM. The CC50 at 7 days in data set [2] is more than 30000 nM.

With `Cc1cc(NC(=O)c2c(C)c(C(=O)C(=O)NC3COCC(O)C3)n(C)c2C)ccc1F` (stereo not drawn) [Example 608, N-(4-fluoro-3-methylphenyl)-5-(2-((5-hydroxytetrahydro-2H-pyran-3-yl)amino)-2-oxoacetyl)-1,2,4-trimethyl-1H-pyrrole-3-carboxamide], the EC50 in data set [1] was less than 50 nM. Further, in data set [2], the CC50 at 7 days was more than 30000 nM.

For the compound `Cc1cc(NC(=O)c2c(C)c(C(=O)C(=O)NC(CC(C)C)c3nn[nH]n3)n(C)c2C)ccc1F` (stereo not drawn) [Example 80, N-(4-fluoro-3-methylphenyl)-1,2,4-trimethyl-5-(2-((3-methyl-1-(2H-tetrazol-5-yl)butyl)amino)-2-oxoacetyl)-1H-pyrrole-3-carboxamide], the EC50 in data set [1] was 50 to 499 nM. Further, in data set [2], the CC50 at 7 days was more than 30000 nM.

Take `Cc1cc(NC(=O)c2c(C)c(C(=O)C(=O)NC(C)(C)C(=O)N3CCC(O)CC3)n(C)c2C)ccc1F` [Example 597, N-(4-fluoro-3-methylphenyl)-5-(2-((1-(4-hydroxypiperidin-1-yl)-2-methyl-1-oxopropan-2-yl)amino)-2-oxoacetyl)-1,2,4-trimethyl-1H-pyrrole-3-carboxamide]: the EC50 in data set [1] is less than 50 nM. In data set [2], this compound gave a CC50 at 7 days of more than 30000 nM.

The record behind these values is patent US20190375708A1 (VenatoRx Pharmaceuticals, Inc., priority 2018, published 2019).
